The results in this text go back to paper PMC11150675, “Simultaneous determination of multiple components in rat plasma by UPLC-MS/MS for pharmacokinetic studies after oral administration of Pogostemon cablin extract” (Frontiers in Pharmacology, 2024).

A short description of data set [1]: PK study in rats after single oral administration of Pogostemon cablin (PC) extract, plasma analysed by UPLC-MS/MS. Particulars: for detection in plasma after oral PC extract: no complete PK profile obtained; for shape of plasma concentration-time curve: Figure 2.
Protocol: (§1) The 100 μL plasma sample was combined with 20 μL of ME, 20 μL of IS (500 ng/mL), and 2.5 μL of FA, followed by vortexing for 1 min. This mixture underwent extraction with 600 μL ACN through vortexing at room temperature for 3 min. Subsequent to centrifugation at 14,000 rpm for a period of 10 min, the resulting supernatant was moved to another tube and dried under a stream of nitrogen. The dried residue was dissolved in 100 μL ME-ACN (50:50 v/v), followed by vortexing for 5 min, and subsequent centrifugation at 14,000 rpm for 10 min. Finally, 20 μL of the supernatant was used for analysis.
(§2) A concentration of 0.5 g/mL of PC extract was obtained by dissolving in 0.5% CMC-Na aqueous solution. The PC suspension of the 4.0 g/kg dose was given to rats by single oral administration. […] Subsequently, the plasma collected underwent centrifugation at a speed of 7000 rpm for a duration of 10 min. It was then moved to clean tubes and kept at a temperature of −80°C.
(§3) Data in this study was presented as the mean ± standard deviation (SD). The MassHunter Workstation software (version B.09.00, Agilent, United States) was utilized for determining the plasma levels of the 15 analytes. Additionally, PK parameters were analyzed using DAS 3.0 Software (Medical College of Wannan, China).
For data set [2] the following is noted: rat, in vivo, po, 4 g/kg.
Protocol: as §1, §2, §3
Where [3] appears, read: rat plasma, PC extract 4.0 g/kg oral.
Setting [4] is: rat plasma, PC extract 4.0 g/kg single oral dose, n = 6.

Where two headings read alike, the source gives them in different places.

For the compound `COc1ccc(-c2cc(=O)c3c(O)cc(O)cc3o2)cc1` [Acacetin, acacetin], the “detection in plasma after oral PC extract” value (shortened to “detection in plasma”) in data set [1] (setting [3]) is “only detected in the initial plasma samples”.

For the compound `O=c1cc(-c2ccc(O)cc2)oc2cc(O)cc(O)c12` [Apigenin, apigenin], in data set [1] (male, rat, plasma, po, 4 g/kg), the AUC turned out to be 255 ± 65.5 ng·h/mL, the AUC(0-inf) stood at 255 ± 65.5 ng·h/mL, the Cmax is 64.2 ± 15.8 ng/mL and the Tmax amounted to 0.3 ± 0.2 h. For the same compound, the half-life in data set [1] (male, rat, plasma, po, 4 g/kg) is 2.7 ± 0.6 h. In addition, the “shape of plasma concentration-time curve” value in data set [1] (rat plasma, PC extract oral) is on record as “double-peak phenomenon”.

Take `O=c1cc(-c2ccc(O)cc2)oc2cc(O[C@@H]3O[C@H](CO)[C@@H](O)[C@H](O)[C@H]3O)cc(O)c12` [Cosmosiin, cosmosiin]: the T1/2z in data set [2] came out at 3.7 ± 0.6 h.

On to `COc1ccc(-c2cc(=O)c3c(O)cc(O[C@@H]4O[C@H](CO)[C@@H](O)[C@H](O)[C@H]4O)cc3o2)cc1O` [Diosmetin-7-O-β-D-glucopyranoside, diosmetin-7-O-β-D-glucopyranoside], for which the “detection in plasma” value in data set [1] (setting [3]) is recorded as “only detected in the initial plasma samples”.

With `O=c1c(O[C@@H]2O[C@H](CO)[C@H](O)[C@H](O)[C@H]2O)c(-c2ccc(O)c(O)c2)oc2cc(O)cc(O)c12` [Hyperoside, hyperoside], the “detection in plasma” value in data set [1] (setting [3]) is given as “only detected in the initial plasma samples”.

For `C[C@@H]1O[C@@H](O[C@@H]2[C@@H](O)[C@H](OCCc3ccc(O)c(O)c3)O[C@H](COC(=O)/C=C/c3ccc(O)c(O)c3)[C@H]2O)[C@H](O)[C@H](O)[C@H]1O` [Isoacteoside, isoacteoside], in data set [1] (male, rat, plasma, po, 4 g/kg), the AUC was found to be 384 ± 93.8 ng·h/mL, the AUC(0-inf) was 384 ± 93.8 ng·h/mL, the peak level (Cmax) was 109 ± 41.5 ng/mL and the Tmax is 0.5 ± 0.3 h. Besides, the half-life in data set [1] (male, rat, plasma, po, 4 g/kg) was 2.9 ± 0.3 h.

In the case of `COc1cc(O)c2c(=O)c(O)c(-c3ccc(OC)c(O)c3)oc2c1` [Ombuin, ombuin], in data set [1] (setting [4]), the “AUC (0-tn)” value came out at 95.1 ± 28.1 µg·h/L, the “AUC (0-∞)” value worked out at 95.4 ± 28.4 ng·h/mL, the Cmax is 11.2 ± 1.5 ng/mL and the T1/2z came to 3.8 ± 1.8 h. Also, in data set [1] (setting [4]), the time of peak concentration (Tmax) turned out to be 0.6 ± 0.2 h.

Regarding `COc1cc(O)c2c(=O)c(OC)c(-c3ccc(O)c(OC)c3)oc2c1` [Pachypodol, pachypodol], in data set [1] (male, rat, plasma, po, 4 g/kg), the AUC came out at 243 ± 63.5 ng·h/mL, the AUC(0-inf) is 243 ± 63.5 ng·h/mL, the Cmax turned out to be 47.8 ± 15.9 ng/mL and the Tmax amounted to 0.8 ± 0.2 h. The half-life in data set [1] (male, rat, plasma, po, 4 g/kg) is 2 ± 0.1 h. In addition, in data set [1] (rat plasma, PC extract oral), the “shape of plasma concentration-time curve” value is recorded as “double-peak phenomenon”.

Consider `Cc1cc(O)c(C(=O)CCC(C)C)c(=O)o1` [Pogostone, pogostone], for which the “concentration maximum (Cmax)” value in data set [1] (setting [3]) is 37204.0 ± 10,901.0 ng/mL. Moreover, in data set [1] (setting [4]), the “AUC (0-tn)” value is listed as 258294.0 ± 93,104.7 μg/L*h, the “AUC (0-∞)” value came to 258320.9 ± 93120.6 ng·h/mL, the Cmax is reported as 37204.0 ± 10,901.0 μg/L and the T1/2z is recorded as 0.8 ± 0.5 h. Besides, the Tmax in data set [1] (setting [4]) is 1.9 ± 1.3 h. For the same compound, the “area-under-the-curve (AUC) compared with other constituents” value in data set [1] (rat plasma, PC extract oral) is “significantly exceeded that of the other constituents”.

In the case of `COc1cc(O)c2c(=O)c(OC)c(-c3ccc(OC)c(OC)c3)oc2c1` [Retusin, retusin], in data set [1] (male, rat, plasma, po, 4 g/kg), the AUC is 92.2 ± 33 ng·h/mL, the AUC(0-inf) worked out at 92.2 ± 33 ng·h/mL, the Cmax is 33 ± 14.6 ng/mL and the Tmax is 0.9 ± 0.6 h. Also, in data set [1] (male, rat, plasma, po, 4 g/kg), the half-life is 1.5 ± 0.2 h.

Regarding `COc1cc(C(=O)O)ccc1O` [Vanillic acid, vanillic acid], in data set [1] (male, rat, plasma, po, 4 g/kg), the AUC was determined as 1310 ng·h/mL, the AUC(0-inf) came to 1310 ng·h/mL, the Cmax was found to be 116 ± 36.8 ng/mL and the Tmax was 1.4 ± 1.4 h. In addition, the half-life in data set [1] (male, rat, plasma, po, 4 g/kg) was 2.5 ± 0.1 h.

In the case of `C[C@@H]1O[C@@H](O[C@@H]2[C@@H](O)[C@H](OCCc3ccc(O)c(O)c3)O[C@H](CO)[C@H]2OC(=O)/C=C/c2ccc(O)c(O)c2)[C@H](O)[C@H](O)[C@H]1O` [Verbascoside, verbascoside], in data set [1] (male, rat, plasma, po, 4 g/kg), the AUC was determined as 1700 ± 394 ng·h/mL, the total exposure AUC(0-inf) came out at 1700 ± 394 ng·h/mL, the highest level (Cmax) was 554 ± 159 ng/mL and the Tmax worked out at 0.4 ± 0.3 h. The compound also gave a half-life in data set [1] (male, rat, plasma, po, 4 g/kg) of 2.6 ± 0.21 h.

As to `O=c1cc(-c2ccc(O)cc2)oc2c([C@@H]3O[C@H](CO)[C@@H](O)[C@H](O)[C@H]3O)c(O)c([C@@H]3O[C@H](CO)[C@@H](O)[C@H](O)[C@H]3O)c(O)c12` [Vicenin-2, vicenin-2], in data set [1] (setting [4]), the “AUC (0-tn)” value is 968.0 ± 131.9 µg·h/L, the “AUC (0-∞)” value stood at 968.8 ± 132.9 ng·h/mL, the Cmax was 249.4 ± 50.8 ng/mL and the T1/2z came out at 1.2 ± 0.6 h. Further, the Tmax in data set [1] (setting [4]) is listed as 0.3 ± 0.1 h.

Regarding `O=c1cc(-c2ccc(O)cc2)oc2c([C@@H]3O[C@H](CO)[C@@H](O)[C@H](O)[C@H]3O)c(O)cc(O)c12` [Vitexin, vitexin], in data set [1] (setting [3]), the “detection in plasma” value is recorded as “only detected in the initial plasma samples”.
